Test results as given in US12570684B2 (UNIVERSITY OF TENNESSEE RESEARCH FOUNDATION, priority 2020, dated 2026).
Converted amounts (≈) assume the structure as drawn. Read-outs that look alike come from different tables or passages of the source.

How the values were obtained:
AglH (M. jannaschii) = molecular target: T1, AglH (M. jannaschii) (Methanocaldococcus jannaschii, UniProt Q58513); assay: AglH assay
T1 sequence (Q58513 1-301): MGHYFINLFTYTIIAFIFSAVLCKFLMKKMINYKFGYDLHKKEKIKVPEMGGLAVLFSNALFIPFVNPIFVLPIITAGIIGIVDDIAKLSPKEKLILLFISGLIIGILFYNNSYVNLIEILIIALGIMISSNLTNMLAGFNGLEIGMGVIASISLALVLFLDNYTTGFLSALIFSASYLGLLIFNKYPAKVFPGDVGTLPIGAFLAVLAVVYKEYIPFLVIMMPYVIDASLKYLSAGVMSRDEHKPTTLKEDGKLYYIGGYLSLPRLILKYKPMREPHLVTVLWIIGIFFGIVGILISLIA

WecA (E. coli) = WecA (E. coli) (Escherichia coli, UniProt P0AC78); assay: WecA assay
WecA (E. coli), sequence (P0AC78 whole entry): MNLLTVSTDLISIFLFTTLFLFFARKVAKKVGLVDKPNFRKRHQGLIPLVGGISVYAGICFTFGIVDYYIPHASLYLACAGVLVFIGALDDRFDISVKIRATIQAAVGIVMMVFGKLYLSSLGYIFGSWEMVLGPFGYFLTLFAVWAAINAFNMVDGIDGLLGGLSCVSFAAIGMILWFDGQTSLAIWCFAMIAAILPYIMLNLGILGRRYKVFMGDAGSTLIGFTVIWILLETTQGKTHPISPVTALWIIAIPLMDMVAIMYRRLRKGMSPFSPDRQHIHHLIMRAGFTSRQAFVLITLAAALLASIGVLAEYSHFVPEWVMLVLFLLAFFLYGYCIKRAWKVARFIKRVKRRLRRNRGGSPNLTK
Method: Preparation of membrane fraction P-60 containing WecA. E. coli B21 wecA strain were harvested by centrifugation (4,700 rpm) at 4° C. followed by washing with 0.9% saline solution (thrice). The washed cell pellets were washed with homogenization buffer (containing 50 mM K2HPO4, 5 mM MgCl2, 5 mM 1,4-dithio-DL-threitol, and 10% glycerol, pH=7.2) (thrice), and approximately 5 g of pellet (wet weight) was collected. The washed cell pellets were suspended in homogenization buffer and disrupted by probe sonication on ice (5 s on and 2 s off for 1 min, then cool down for 1.5 min., 5 cycles, cool down for 15 min, and then, 5 s on and 2 s off for 1 min., cool down for 1.5 min, 5 cycles). The resulting suspension was centrifuged at 4,700×g for 15 min. at 4° C. to remove unbroken cells. The lysate was centrifuged at 25,000×g for 20 min. at 4° C. The supernatant was subjected to ultracentrifugation at 60,000×g for 1 h at 4° C. The supernatant was discarded, and the membrane fraction containing WecA enzyme (P-60) was suspended in the Tris-HCl buffer (pH=7.5). Total protein concentrations were approximately 8 to 10 mg/mL. Aliquots were stored in Eppendorf tubes at −80° C.

WecA = settings: background, reported; cited from earlier work
[1] = molecular target: MraY (Hydrogenivirga sp.) (Hydrogenivirga sp. 128-5-R1-1, UniProt Z9Y2G8N0L0); assay: MraY assay; type: biochemical
MraY (Hydrogenivirga sp.), sequence (Z9Y2G8N0L0 7-365 limits assumed): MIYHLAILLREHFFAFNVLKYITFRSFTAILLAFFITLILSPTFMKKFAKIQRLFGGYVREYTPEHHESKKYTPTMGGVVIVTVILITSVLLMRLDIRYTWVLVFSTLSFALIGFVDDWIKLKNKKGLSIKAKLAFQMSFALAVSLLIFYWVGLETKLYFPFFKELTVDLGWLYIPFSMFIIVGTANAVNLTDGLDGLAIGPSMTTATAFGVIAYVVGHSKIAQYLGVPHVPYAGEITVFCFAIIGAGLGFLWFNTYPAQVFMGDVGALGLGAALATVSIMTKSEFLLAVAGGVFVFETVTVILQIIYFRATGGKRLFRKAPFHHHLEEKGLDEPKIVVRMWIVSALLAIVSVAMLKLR
Method: Expression and purification of HyMraY. The gene mraY of Hydrogenivirga spp. 128-5-R1-1 was cloned with a N-terminal His6 tag into a pET22b vector. […] The proteins were purified using a nickel, cation exchange, and size exclusion chromatography.
MraY assay. MraY assay substrates, Park's nucleotide-N^ε-C6-dansylthiourea, neryl phosphate, were chemically synthesized according to the reported procedures.^7 Park's nucleotide-N^ε-C6-dansylthiourea (2 mM stock solution, 1.88 jiL), MgCl2 (0.5 M, 5 jiL), KCl (2 M, 5 jiL), Triton X-100 (0.5%, 5.63 jiL), Tris buffer (pH 8.0, 50 mM), neryl phosphate (0.1 M, 2.25 jiL), and inhibitor molecule (0-50 .ig/mL in Tris buffer) were placed in a 1.5 mL Eppendorf tube. […] (26° C.) and quenched with CHCl3 (100 jiL). […] The aqueous phase was assayed via reverse-phase HPLC.

DPAGT1 (Human) = molecular target: T2, DPAGT1 (Human) (Homo sapiens, UniProt Q9H3H5); assay: DPAGT1 assay; type: biochemical
T2 construct: made in house; host or cells: Expi293 cells (suspension)
T2 sequence (Q9H3H5 1-408): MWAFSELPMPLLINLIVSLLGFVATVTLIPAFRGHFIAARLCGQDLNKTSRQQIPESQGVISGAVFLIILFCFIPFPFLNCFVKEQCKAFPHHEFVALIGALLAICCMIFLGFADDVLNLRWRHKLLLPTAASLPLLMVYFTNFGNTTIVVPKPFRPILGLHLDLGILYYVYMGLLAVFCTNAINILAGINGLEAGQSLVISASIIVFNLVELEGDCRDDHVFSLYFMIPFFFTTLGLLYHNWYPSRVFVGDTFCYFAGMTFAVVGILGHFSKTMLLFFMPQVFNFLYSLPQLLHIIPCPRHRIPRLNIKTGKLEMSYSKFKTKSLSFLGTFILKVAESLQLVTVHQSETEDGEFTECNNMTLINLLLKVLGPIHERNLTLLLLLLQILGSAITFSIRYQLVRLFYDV
Method: DPAGT1 expression and purification. DPAGT1 was expressed in suspended Expi293 cells for 36 h. The cells were lysed by drawing through a 26 g needle (10 times) and membrane protein was extracted using buffer containing 1% decyl f3-D-maltopyranoside detergent. DPAGT1 was purified using HA-agarose resin and a superdex 200 size exclusion column.

PD002 [2] = assay: Scratch (wound healing) assay; type: cell-based; settings: 0.2 μM, 24 h; untreated PD002 63%
Method: Scratch Assay. A confluent monolayer was formed in 24-well plates. The monolayer was scratched by a sterile 200 μL pipette tip and washed with PBS to remove cell debris. Complete medium with CPPB (5) (0, 0.05, 0.1, 0.2 μM) were added and scratched areas were photographed with microscope. The scratched cells were incubated at 37° C., 5% CO2. After 24 h, medium was removed and cells were stained with a 1:1 mixture of crystal violet and PBS for 5 min., washed with PBS twice, and photographed with microscope. Wound areas were measured and recovered areas were calculated.

PD002 [3] = assay: Checkerboard synergy (FIC index) with paclitaxel; type: cell-based
Method: The synergistic or antagonistic activities of CPPB were assessed in vitro via checkerboard technique.

[4] = read-out: IC50 AglH (M. jannaschii)

Compound: COC1C(O)[C@H](n2ccc(=O)[nH]c2=O)O[C@@H]1[C@@H](O[C@H]1OC(CNCc2ccc(N3CCC(c4ccc(OC(F)(F)F)cc4)CC3)cc2)=C[C@H](O)[C@@H]1O)C(N)=O (stereo partly drawn) [CPPA, (2R)-2-(((2S,3S,4S)-3,4-Dihydroxy-6-(((4-(4-(4-(trifluoromethoxy)phenyl)piperidin-1-yl)benzyl)-amino)-methyl)-3,4-dihydro-2H-pyran-2-yl)oxy)-2-((2S,5R)-5-(2,4-dioxo-3,4-dihydropyrimidin-1(2H)-yl)-4-hydroxy-3-methoxytetrahydrofuran-2-yl)acetamide]
- IC50 (AglH (M. jannaschii)): > 50 µM
- IC50 (WecA (E. coli)): > 50 µM

Compound: CCCCc1ccc(NC(=O)C2=CCN(C)[C@@H]([C@H](O[C@@H]3O[C@H](CN)[C@@H](O)[C@H]3O)[C@H]3O[C@@H](n4ccc(=O)[nH]c4=O)[C@H](O)[C@@H]3O)C(=O)N2C)cc1 [CPZEN-45]
- IC50 WecA (WecA): ~0.058 µg/mL (≈ 0.0842 µM)

Compound: NC(=O)[C@H](O[C@H]1OC(C(=O)NCc2ccc(N3CCC(c4ccc(OC(F)(F)F)cc4)CC3)cc2)=C[C@H](O)[C@@H]1O)[C@H]1O[C@@H](n2ccc(=O)[nH]c2=O)C(O)C1O (stereo partly drawn) [DM-CPPB, (2S,3S,4S)-2-((1R)-2-Amino-1-((2S,5R)-5-(2,4-dioxo-3,4-dihydropyrimidin-1(2H)-yl)-3,4-dihydroxy-tetrahydrofuran-2-yl)-2-oxoethoxy)-3,4-dihydroxy-N-(4-(4-(4-(trifluoromethoxy)phenyl)-piperidin-1-yl)benzyl)-3,4-dihydro-2H-pyran-6-carboxamide]
- IC50 (AglH (M. jannaschii)): > 50 µM
- IC50 (WecA (E. coli)): 30 µM

Compound: NC(=O)[C@H](O[C@H]1OC(C(=O)N[C@H]2CCCCNC2=O)=C[C@H](O)[C@@H]1O)[C@H]1O[C@@H](n2ccc(=O)[nH]c2=O)C(O)C1O (stereo partly drawn) [Dimethyl capuramycin, (2S,3S,4S)-2-((1R)-2-Amino-1-((2S,5R)-5-(2,4-dioxo-3,4-dihydropyrimidin-1(2H)-yl)-3,4-dihydroxy-tetrahydrofuran-2-yl)-2-oxoethoxy)-3,4-dihydroxy-N—((S)-2-oxoazepan-3-yl)-3,4-dihydro-2H-pyran-6-carboxamide]
- IC50 [1]: > 50 µM
- IC50 (DPAGT1 (Human)): > 50 µM
- IC50 (AglH (M. jannaschii)): > 50 µM
- IC50 (WecA (E. coli)): 35 µM

Compound: Nc1ccn([C@@H]2O[C@H](CO)[C@@H](O)C2(F)F)c(=O)n1 [Gemcitabine]
- wound-healing rate (PD002 [2]): 43%

Compound: COC1C(O)[C@@H]([C@@H](O[C@H]2OC(C(=O)NCc3ccc(N4CCC(c5ccc(OC(F)(F)F)cc5)CC4)cc3)=C[C@H](O)[C@@H]2O)C(N)=O)O[C@H]1n1ccc(=O)[nH]c1=O (stereo partly shown) [I-CPPB]
- IC50 (DPAGT1 (Human)): 0.6 µM
- IC50 (AglH (M. jannaschii)): 15 µM
- IC50 (WecA (E. coli)): 20 µM

Compound: CC(=O)O[C@H]1C(=O)[C@@]2(C)[C@H]([C@H](OC(=O)c3ccccc3)[C@]3(O)C[C@H](OC(=O)[C@H](O)[C@@H](NC(=O)c4ccccc4)c4ccccc4)C(C)=C1C3(C)C)[C@]1(OC(C)=O)CO[C@@H]1C[C@@H]2O [Paclitaxel, reference compound]
- IC50 (PD002 [3]; PD002, alone, read-out: IC50 of the single agent against PD002): 1.25 µM
- IC50 (PD002 [3]; PD002, read-out: IC50 CB (paclitaxel in combination), entry 1, with CPPB 0.10 μM): 0.63 µM
- IC50 (PD002 [3]; PD002, read-out: IC50 CB (paclitaxel in combination), entry 2, with CPPB 0.10 μM): 0.16 µM
- IC50 (PD002 [3]; PD002, read-out: IC50 CB (paclitaxel in combination), entry 3, with CPPB 0.20 μM): 0.0049 µM
- IC50 (PD002 [3]; PD002, read-out: IC50 CB (paclitaxel in combination), entry 4, with CPPB 0.20 μM): 0.02 µM
- IC50 (PD002 [3]; PD002, read-out: IC50 CB (paclitaxel in combination), entry 5, with CPPB 0.20 μM): 0.031 µM
- IC50 (PD002 [3]; PD002, read-out: IC50 CB (paclitaxel in combination), entry 6, with CPPB 2.0 μM): 0.02 µM
- IC50 (PD002 [3]; PD002, read-out: IC50 CB (paclitaxel in combination), entry 7, with CPPB 2.0 μM): 0.039 µM
- IC50 (PD002 [3]; PD002, read-out: IC50 CB (paclitaxel in combination), entry 8, with CPPB 2.0 μM): 0.31 µM
- IC50 (PD002 [3]; PD002, read-out: IC50 of paclitaxel against PD002 in combination with CPPB, with CPPB (0.1-2.0 μM)): 0.024 to 0.61 µM
- improvement of cytostatic activity of paclitaxel (PD002 [3]; in combination with CPPB (0.2-2.0 μM)): over 250 times

Compound: COC1C(O)C(C(OC2OC(C(=O)NC3CCCCNC3=O)=CC(O)C2O)C(N)=O)OC1n1ccc(=O)[nH]c1=O [iso-Capuramycin, (2S,3S,4S)-2-((1R)-2-Amino-1-(2S,5R)-5-(2,4-dioxo-3,4-dihydropyrimidin-1(2H)-yl)-3-hydroxy-4-methoxytetrahydrofuran-2-yl)-2-oxoethoxy)-3,4-dihydroxy-N—((S)-2-oxoazepan-3-yl)-3,4-dihydro-2H-pyran-6-carboxamide]
- IC50 (DPAGT1 (Human)): 11.5 µM
- IC50 (AglH (M. jannaschii)): 20 µM
- IC50 (WecA (E. coli)): 30 µM

Compound: (2R)-2-(((2S,3S,4S)-3,4-dihydroxy-6-(((4-(4-(4-(trifluoromethoxy)phenyl)pipendin-1-yl)-benzyl)amino)methyl)-3,4-dihydro-2H-pyran-2-yl)oxy)-2-((2S,5R)-5-(2,4-dioxo-3,4-dihydro-pyrimidin-1(2H)-yl)-3-hydroxy-4-methoxytetrahydrofuran-2-yl)acetamide [I-CPPA]
- IC50 [1]: > 50 µM
- MraY inhibition at 50 μM ([1]; 50 μM concentration): did not inhibit
- IC50 (DPAGT1 (Human)): > 50 µM
- DPAGT1 inhibition at 50 μM (DPAGT1 (Human); 50 μM concentration): did not inhibit
- AglH inhibition at 50 μM (AglH (M. jannaschii); 50 μM concentration): did not inhibit
- IC50 (AglH (M. jannaschii); [4]): > 50 µM
- WecA inhibition at 50 μM (WecA (E. coli); 50 μM concentration): did not inhibit
- IC50 (WecA (E. coli); read-out: IC50 WecA (E. coli)): > 50 µM

Compound: (2S,3S,4S)-2-((1R)-2-Amino-1-(2S,5R)-5-(2,4-dioxo-3,4-dihydropyrimidin-1(2H)-yl)-3,4-dimethoxy-tetrahydrofuran-2-yl)-2-oxoethoxy)-3,4-dihydroxy-N-(4-(4-(4-(trifluoromethoxy)-phenyl)piperidin-1-yl)benzyl)-3,4-dihydro-2H-pyran-6-carboxamide [OM-CPPB]
- IC50 [1]: 5 µM
- DPAGT1 inhibitory activity (in words) (DPAGT1 (Human)): very low- or no-DPAGT1 inhibitor
- IC50 (DPAGT1 (Human)): 20 µM
- IC50 (AglH (M. jannaschii); [4]): 30 µM
- IC50 (WecA (E. coli); read-out: IC50 WecA (E. coli)): 10 µM
